According to BindingDB's records for patent US9139585 (Merck Sharp & Dohme, 2015):

Target: T1, ATP-sensitive inward rectifier potassium channel 1 (Homo sapiens, UniProt P48048)
T1 sequence (P48048 whole entry): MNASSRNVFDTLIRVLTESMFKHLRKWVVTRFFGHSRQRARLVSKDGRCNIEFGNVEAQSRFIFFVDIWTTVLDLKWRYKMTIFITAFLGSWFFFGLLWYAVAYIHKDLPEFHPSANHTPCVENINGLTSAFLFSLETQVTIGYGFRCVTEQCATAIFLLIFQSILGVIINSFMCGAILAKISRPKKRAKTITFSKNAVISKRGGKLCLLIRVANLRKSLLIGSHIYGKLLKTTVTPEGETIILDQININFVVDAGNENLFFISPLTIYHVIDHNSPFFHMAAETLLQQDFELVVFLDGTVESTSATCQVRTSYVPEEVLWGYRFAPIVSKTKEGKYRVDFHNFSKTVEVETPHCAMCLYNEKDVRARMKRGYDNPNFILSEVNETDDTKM
Assay: Electrophysiology Assay
Conditions: pH 7.4; 37 °C
Method: Chinese hamster ovary cells stably expressing Kir1.1 channels were maintained in T-75 flasks in cell culture media in a humidified 10% CO2 incubator at 37 °C. Prior to an experiment, Kir1.1 expression was induced by overnight incubation with 1 mM sodium butyrate. […] After centrifugation, the cell pellet was resuspended in approximately 4.0 ml of bath solution and placed in the IonWorks instrument. The intracellular solution consisted of (in mM): 80 K gluconate, 40 KCl, 20 KF, 3.2 MgCl2, 3 EGTA, 5 Hepes, pH 7.

IC50: 95 nM
SMILES: Cc1c([C@@H](O)CN2CCN(C[C@H](O)c3ccc4c(c3)CCS4(=O)=O)CC2)ccc2c1COC2=O [US9139585, 43B]
